One series deals with T1, CypA (Homo sapiens, UniProt P62937).
T1 construct: His-tag (TEV-cleavable) (cleaved yes); made in house; host or cells: E. coli C41 BL21(DE3) ('C41 BL21(DH3)' [sic]); plasmid from the Edinburgh Protein Production Facility
In words: Isothermal titration calorimetry (ITC), ester series, direct titration. The following applies: 25 °C, 50 mM phosphate buffer pH 6.5; single experiments; uncertainties from fit to one-site binding model; n.b. = no binding observed at the maximum concentration tested. The procedure: The molecular weights of HisCypA and free CypA are 20.893 and 18.070 kDa, respectively. Protein concentration was determined by measuring the absorbance at 280 nm and the extinction coefficients 14440 and 8480 M-1 cm-1, respectively.
Isothermal Titration Calorimetry (ITC)
ITC1 – Ester series: Instrument and experimental setup
All ITC experiments for the ester series compounds were carried out at 25 °C on a MicroCal Auto iTC200 (GE Healthcare) instrument. The buffer used in the titrations of the compounds belonging to the ester series (1 – 12) was 50 mM phosphate buffer, pH 6.5 and the concentration of DMSO was 2% v/v for all the compounds, unless otherwise stated in Table S1. Final compound solutions were heated to 65 °C and/or sonicated prior to the experiment. Each experiment consisted of an initial injection of 0.4 μL followed by nineteen 2 μL injections and in most of cases for these compounds, the “continue injections” protocol was used leaving the cell intact and performing a second series of titrations using the above protocol to achieve saturation. Control experiments were performed, where each compound was titrated into buffer and when small amount of heat was detected due to heat of dilution, it was subtracted when processing the data using a linear fit method. A more detailed setup for each experiment is depicted in Table S6. In all cases the first injection was omitted from the data processing. All data were analysed using the MicroCal PEAQ-ITC […]
(Wiseman constant) is very small, a fixed stoichiometry to 1 was applied during the non-linear regression of […]
the duration of the experiment.
On the technique in general: ITC needs no label: the signal is the heat of the interaction.

The subject of a further series is MDA-MB-231_NLG cells. In words: cells. It counts as cell-based. The following applies: 120 hours treatment. On the procedure:
The tumorigenic, breast, epithelial adenocarcinoma cell lines MDA-MB-231_NLG and the normal, lung fibroblast cell line, IMR90 were cultured as adherent monolayers in DMEM with 10% volume FBS in an atmosphere with 5% CO2 and 95% humidity and were routinely sub-cultured upon reaching 80-90% confluence. MDA-MB-231_NLG cells are a variant of MDA-MB-231 cells, expressing nuclear-restricted green fluorescent protein; they were produced by stable transduction of MDA-MB-231 cells with NucLight Green lentivirus (Essen Bioscience), following the manufacturer’s protocol.
Image-based Cell Viability Assays
Cells were seeded at a density of 500 cells per well in cell culture medium in 384-well cell culture plates and allowed to adhere overnight (about 16 hours), incubated in a humidified atmosphere with 5% CO2.
Subsequently, cell culture medium was refreshed, supplemented with Draq 7 (3µM final concentration) and test compound at the indicated concentrations with three wells being treated for each condition tested. Cells were then returned to the cell culture incubator and imaged with a 10X objective every 3 hours for 120 hours using an IncuCyte ZOOM microscope from Essen Bioscience.
Using the IncuCyte ZOOM software, custom image analysis procedures were developed and applied for each cell line to determine cell confluency, cell number and number of dead cells over the time course of the experiment. Phase contrast was used to determine relative area of each image occupied by cells (confluency), while green nuclear counts were used to determine number of MDA-MB-231_NLG cells and red nuclear counts were used to determine number of dead (Draq7-positive) cells. […]
growth inhibition) being determined by fitting non-linear regression curves to the data and extrapolating the required values using GraphPad Prism 6. Statistical analyses in cell viability assays to compare the effect of compound treatment to treatment with vehicle were performed using GraphPad Prism 6 (2-way ANOVA with Bonferroni correction post hoc).

The target of the next series is T2, His-CypD (Homo sapiens, UniProt P30405).
T2 construct: made in house; host or cells: E. coli C41 BL21(DE3) ('C41 BL21(DH3)' [sic]); plasmid from the Edinburgh Protein Production Facility
T2 sequence (P30405 30-207): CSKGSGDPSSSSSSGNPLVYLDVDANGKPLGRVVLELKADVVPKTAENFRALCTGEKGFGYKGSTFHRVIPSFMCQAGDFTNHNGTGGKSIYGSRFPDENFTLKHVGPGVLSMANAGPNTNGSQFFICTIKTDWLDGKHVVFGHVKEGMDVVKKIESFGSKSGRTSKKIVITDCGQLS
Nature of the series: Surface plasmon resonance (SPR) kinetic titration, BIAcore T200. It counts as binding. The following applies: 25 °C, mean ± 1σ from three repeat experiments. On the procedure: (§1) injection protocol (Fig. S9B). […]
(§2) using the same instrument parameters was performed (Fig. S9A).
(§3) Surface Plasmon Resonance (SPR)
(§4) SPR1 – SPR equipment and reagents
(§5) SPR measurements were performed on a BIAcore T200 instrument (GE Healthcare). Ni2+- nitrilotriacetic acid (NTA) sensor chips, 1-ethyl-3-(3- diaminopropyl) carbodiimide hydrochloride (EDC) and Nhydroxysuccinimide (NHS) were purchased from GE Healthcare.
(§6) SPR2 – Immobilization and covalent stabilizations of His-Cyps
(§7) Pure His-cyclophilins were immobilized and covalently stabilized on the NTA sensor chip according to the protocol described [Wear et al., 2017, FEBS OpenBio], using 200 nM concentrations of each protein, in Running Buffer (PBS, pH 7.4; 0.05% surfactant P20, 2% v/v ethanol; 50 µM EDTA), at 30 µl min-1 with 60 second contact times on the activated NTA surfaces.
(§8) (1 picture or pasted object on this page, not shown here)
(§9) Specific surface protein activity was assayed by passing saturating […]
(§10) SPR3 – Kinetic titration experiments
(§11) Buffer (PBS, pH 7.4, 50 µM mM EDTA; 0.05 % v/v surfactant P20; 2 % v/ v ethanol), were injected over the sensor surface, at 100 µl.min -1 with a 90 s contact time and a 90 s dissociation time. The sensor surface was regenerated between experiments by dissociating any formed complex in running buffer for at least 1,200 seconds. The apparent on-rate (k+) and off-rate (k-) constants and the equilibrium dissociation constant (K d) were calculated from reference corrected sensorgrams by global fitting of a 1:1 binding model, including a mass transport term, using analysis software ( v.2.02, GE Healthcare) provided with the BIAcore T200 […]
(§12) Buffer (PBS, pH 7.4, 50 µM mM EDTA; 0.05 % v/v surfactant P20; 2 % v/v ethanol), were injected over the sensor surface, at 100 µl.min-1 with a 15 s contact time and a 600 s dissociation time. The sensor surface was […]
(In general: Surface plasmon resonance follows binding to a sensor surface in real time, without labels.)

For a further series, the target named is T3, His-CypA (Homo sapiens, UniProt P62937).
T3 construct: made in house; host or cells: E. coli C41 BL21(DE3) ('C41 BL21(DH3)' [sic]); plasmid from the Edinburgh Protein Production Facility
T3 sequence (P62937 whole entry): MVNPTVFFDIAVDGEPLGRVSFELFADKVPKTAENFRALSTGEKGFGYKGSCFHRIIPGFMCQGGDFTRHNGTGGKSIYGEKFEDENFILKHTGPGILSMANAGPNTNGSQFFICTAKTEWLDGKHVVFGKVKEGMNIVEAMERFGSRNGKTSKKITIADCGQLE
The series is described as above. The format is binding. On the procedure: as §1, §2, §3, §4, §5, §6, §7, §8, §9, §10, §11, §12

The target in a further series is T4, His-CypB (Homo sapiens, UniProt P23284).
T4 construct: made in house; host or cells: E. coli C41 BL21(DE3) ('C41 BL21(DH3)' [sic]); plasmid from the Edinburgh Protein Production Facility
T4 sequence (P23284 34-216): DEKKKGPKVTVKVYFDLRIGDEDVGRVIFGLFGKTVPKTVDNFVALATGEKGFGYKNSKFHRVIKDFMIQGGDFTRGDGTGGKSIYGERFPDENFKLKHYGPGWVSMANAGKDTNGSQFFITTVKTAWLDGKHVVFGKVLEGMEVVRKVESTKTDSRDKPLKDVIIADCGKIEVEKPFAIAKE
Nature of the series: biochemical. It counts as binding. The following applies: 25 °C, mean ± 1σ from three repeat experiments; read-out: Kd (SPR) CypB. On the procedure:
as §1, §2, §3, §4, §5, §6, §7
(1 picture or pasted object on this page, not shown here) […]
Buffer (PBS, pH 7.4, 50 µM mM EDTA; 0.05 % v/v surfactant P20; 2 % v/ v ethanol), were injected over the sensor surface, at 100 µl.min -1 with a 90 s contact time and a 90 s dissociation time. […] The apparent on-rate (k+) and off-rate (k-) constants and the equilibrium dissociation constant (K d) were calculated from reference corrected sensorgrams by global fitting of a 1:1 binding model, including a mass transport term, using analysis software ( v.2.02, GE Healthcare) provided with the BIAcore T200 […]

Read-outs that look alike come from different tables or passages of the source.

A word on the Kd: it is the free concentration of one partner at which half of the binding sites on the other are occupied at equilibrium, for simple one-to-one binding. By GI50 is commonly meant the concentration that inhibits growth by half.

T1 sequence (P62937 whole entry): as the sequence (P62937 whole entry) above

`CCOC(=O)CNC(=O)N(Cc1ccc(N)cc1)C(C)C.Cl` [Compound 3]: the “CypA Kd (ITC)” value at CypA was “n.b and n.b. and inactive”. `CCCN(Cc1ccc(N)cc1)C(=O)NCC(=O)OCC` [Compound 4] registered a Kd at CypA of 266 ± 3 µM. As to `CCOC(=O)CNC(=O)N(CC#N)Cc1ccc(N)cc1.Cl` [Compound 6], on CypA, the “CypA Kd (ITC)” value is listed as “very weak binders” and the Kd is 993 ± 20 µM. With `CCOC(=O)CNC(=O)N(Cc1ccc(N)cc1)CC1CC1.Cl` [Compound 7], at CypA, the “CypA Kd (ITC)” value was “n.b and n.b. and very weak binders”. Still for that read-out and setting: as for `CCOC(=O)CNC(=O)N(Cc1ccc(N)cc1)C1CCNCC1.Cl.Cl` [Compound 11], the entry is “n.b and n.b. and inactive”. As to `C#CCN(Cc1ccc(N)cc1)C(=O)NCC(=O)N1CCCC1c1ccccc1Br` (stereo not drawn) [Compound 13], in the series on MDA-MB-231_NLG cells, the “cell death (dead cells)” value is “Negligible cell death”. For the same molecule, in the series on MDA-MB-231_NLG cells (Homo sapiens, mean with 95% CI [lower limit, upper limit], three independent experiments, read-out: GI50, growth inhibition), the 50% growth inhibitory concentration (GI50) was found to be 5.13 µM. Also, the Kd on His-CypD stood at 0.2 ± 0.1 µM; on His-CypA (25 °C, mean ± 1σ from three repeat experiments, read-out: Kd (SPR) CypA), 3.2 ± 1.3 µM; on His-CypB, 1.4 ± 0.4 µM. `Cl.Cn1cc(CN(Cc2ccc(N)cc2)C(=O)NCC(=O)N2CCCC2c2ccccc2Br)nn1` (stereo not drawn) [Compound 14]: the “GI50, growth inhibition” value with MDA-MB-231_NLG cells (mean with 95% CI [lower limit, upper limit], three independent experiments) was “inactive”. Consider `CCOC(=O)Cn1cc(CN(Cc2ccc(N)cc2)C(=O)NCC(=O)N2CCCC2c2ccccc2Br)nn1` (stereo not drawn) [Compound 16], for which the Kd at His-CypD worked out at 1 ± 0.4 µM; on His-CypA it was 4.3 ± 1 µM; on His-CypB, 1.9 ± 0.9 µM.

The record behind these values is paper PMC6335623, “A computationally designed binding mode flip leads to a novel class of potent tri-vector cyclophilin inhibitors” (Chemical Science, 2018).
